Measurements published in ChEMBL document CHEMBL1140940, “Pyrido[2,3-d]pyrimidin-5-ones: a novel class of antiinflammatory macrophage colony-stimulating factor-1 receptor inhibitors” (J Med Chem, 2009).
The source made the active and inactive calls. The rule behind the calls is not given here.

Assays:
[1] = Half life in Sprague-Dawley rat at 10 mg/kg, po; format: ADME, organism-based; set-up: dose 10 mg/kg, route oral; conditions: in vivo
[2] = Oral bioavailability in Sprague-Dawley rat at 10 mg/kg; format: ADME, organism-based; conditions: in vivo
[3] = Clearance in mouse at 2 mg/kg, iv; format: ADME, organism-based; set-up: dose 2 mg/kg, route intravenous; conditions: in vivo
[4] = Plasma concentration in Freund's complete adjuvant-induced Lewis rat arthritis model at 1 mg/kg, po twice daily administered on day 8 post adjuvant challenge measured 7 days after last dose; format: ADME, organism-based; set-up: dose 1 mg/kg, route oral
[5] = Clearance in Sprague-Dawley rat at 2 mg/kg, iv; format: ADME, organism-based; set-up: dose 2 mg/kg, route intravenous; conditions: in vivo
[6] = Plasma concentration CSF1-induced B6C3F1 mouse at 3 mg/kg, po after 6 hrs; format: ADME, organism-based; set-up: dose 3 mg/kg, route oral
Mus musculus = test: Reduction of CSF1-induced increase in c-fos mRNA expression in B6C3F1 mouse at 3 mg/kg, po administered 6 hrs before CSF1 challenge measured 15 mins post CSF1 challenge relative to control; format: functional; set-up: scale not given: the % may be the effect or the level left
[7] = Clearance in monkey at 2 mg/kg, iv; format: ADME, organism-based, Macaca mulatta; set-up: dose 2 mg/kg, route intravenous; conditions: rhesus monkey, in vivo
[8] = Half life in monkey at 2 mg/kg, iv; format: ADME, organism-based, Macaca mulatta; set-up: dose 2 mg/kg, route intravenous; conditions: rhesus monkey, in vivo
[9] = Volume of distribution at steady state in mouse at 2 mg/kg, iv; format: ADME, organism-based; set-up: dose 2 mg/kg, route intravenous; conditions: in vivo, read-out: Vdss
[10] = Metabolic stability in dog liver microsomes after 10 mins; format: ADME, Canis lupus familiaris, Microsome; conditions: read-out: Stability
[11] = Plasma concentration in Freund's complete adjuvant-induced Lewis rat arthritis model at […], po twice daily administered on day 8 post adjuvant challenge measured 7 days after last dose; format: ADME, organism-based; set-up: dose 0.33 mg/kg, route oral
[12] = Half life in dog at 2 mg/kg, iv; format: ADME, organism-based, Canis lupus familiaris; set-up: dose 2 mg/kg, route intravenous; conditions: in vivo
Rattus norvegicus [13] = test: Inhibition of ankle swelling in Freund's complete adjuvant-induced Lewis rat arthritis model at […], po twice daily administered on day 8 post adjuvant challenge measured on day 21 post adjuvant challenge relative to control; format: functional; conditions: dose 0.33 mg/kg
[14] = molecular target: Proto-oncogene tyrosine-protein kinase Src (Homo sapiens, UniProt P12931); test: Inhibition of Src by fluorescence polarization competition immunoassay
Sequence of Proto-oncogene tyrosine-protein kinase Src (P12931 2-536 limits assumed): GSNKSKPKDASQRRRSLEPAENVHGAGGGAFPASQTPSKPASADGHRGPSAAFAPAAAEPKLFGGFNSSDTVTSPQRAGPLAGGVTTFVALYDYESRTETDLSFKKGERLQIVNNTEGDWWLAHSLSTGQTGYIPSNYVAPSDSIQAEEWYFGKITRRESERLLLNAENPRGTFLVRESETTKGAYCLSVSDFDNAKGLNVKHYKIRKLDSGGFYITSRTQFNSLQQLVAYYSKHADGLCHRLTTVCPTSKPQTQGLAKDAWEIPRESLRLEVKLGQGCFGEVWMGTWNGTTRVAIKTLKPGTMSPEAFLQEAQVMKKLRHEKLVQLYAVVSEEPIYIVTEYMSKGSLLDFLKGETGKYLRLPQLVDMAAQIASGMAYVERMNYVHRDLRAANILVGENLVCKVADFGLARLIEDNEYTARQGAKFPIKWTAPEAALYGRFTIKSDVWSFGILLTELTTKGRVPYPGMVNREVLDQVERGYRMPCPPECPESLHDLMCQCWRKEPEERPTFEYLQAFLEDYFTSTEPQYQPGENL

[15] = molecular target: Platelet-derived growth factor receptor beta (Homo sapiens, UniProt P09619); test: Inhibition of PDGFRbeta by fluorescence polarization competition immunoassay
Sequence of Platelet-derived growth factor receptor beta (P09619 whole entry): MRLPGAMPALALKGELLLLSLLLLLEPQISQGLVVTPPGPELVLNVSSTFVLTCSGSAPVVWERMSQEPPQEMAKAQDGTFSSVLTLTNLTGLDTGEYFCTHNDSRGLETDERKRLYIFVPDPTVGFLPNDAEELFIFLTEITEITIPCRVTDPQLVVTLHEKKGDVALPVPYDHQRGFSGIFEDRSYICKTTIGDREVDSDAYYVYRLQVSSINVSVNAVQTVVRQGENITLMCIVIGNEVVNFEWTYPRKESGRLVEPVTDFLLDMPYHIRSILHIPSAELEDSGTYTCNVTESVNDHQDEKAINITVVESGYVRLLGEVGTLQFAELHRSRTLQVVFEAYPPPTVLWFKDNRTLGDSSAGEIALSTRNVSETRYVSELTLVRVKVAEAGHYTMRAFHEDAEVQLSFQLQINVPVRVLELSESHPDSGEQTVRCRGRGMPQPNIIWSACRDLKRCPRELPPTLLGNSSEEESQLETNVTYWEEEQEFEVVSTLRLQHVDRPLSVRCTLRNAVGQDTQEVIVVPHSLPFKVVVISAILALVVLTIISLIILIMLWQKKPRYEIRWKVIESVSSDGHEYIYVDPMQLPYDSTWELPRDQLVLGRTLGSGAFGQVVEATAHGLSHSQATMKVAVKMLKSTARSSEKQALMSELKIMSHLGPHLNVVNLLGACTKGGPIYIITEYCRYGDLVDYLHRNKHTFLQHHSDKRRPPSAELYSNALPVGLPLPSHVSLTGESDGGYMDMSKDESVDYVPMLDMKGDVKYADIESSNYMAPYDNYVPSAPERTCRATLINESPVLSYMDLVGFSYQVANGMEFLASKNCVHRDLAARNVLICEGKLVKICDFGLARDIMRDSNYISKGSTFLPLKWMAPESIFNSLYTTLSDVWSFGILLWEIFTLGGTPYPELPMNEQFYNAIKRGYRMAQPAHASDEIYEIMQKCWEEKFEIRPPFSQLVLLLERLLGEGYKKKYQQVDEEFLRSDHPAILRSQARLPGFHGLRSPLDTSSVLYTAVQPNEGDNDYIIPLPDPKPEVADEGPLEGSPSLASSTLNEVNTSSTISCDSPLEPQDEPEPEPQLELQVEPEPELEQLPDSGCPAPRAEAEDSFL

[16] = Oral bioavailability in mouse at 10 mg/kg; format: ADME, organism-based; conditions: in vivo
[17] = molecular target: Mast/stem cell growth factor receptor Kit (Homo sapiens, UniProt P10721); test: Inhibition of KIT by fluorescence polarization competition immunoassay
Sequence of Mast/stem cell growth factor receptor Kit (P10721 whole entry): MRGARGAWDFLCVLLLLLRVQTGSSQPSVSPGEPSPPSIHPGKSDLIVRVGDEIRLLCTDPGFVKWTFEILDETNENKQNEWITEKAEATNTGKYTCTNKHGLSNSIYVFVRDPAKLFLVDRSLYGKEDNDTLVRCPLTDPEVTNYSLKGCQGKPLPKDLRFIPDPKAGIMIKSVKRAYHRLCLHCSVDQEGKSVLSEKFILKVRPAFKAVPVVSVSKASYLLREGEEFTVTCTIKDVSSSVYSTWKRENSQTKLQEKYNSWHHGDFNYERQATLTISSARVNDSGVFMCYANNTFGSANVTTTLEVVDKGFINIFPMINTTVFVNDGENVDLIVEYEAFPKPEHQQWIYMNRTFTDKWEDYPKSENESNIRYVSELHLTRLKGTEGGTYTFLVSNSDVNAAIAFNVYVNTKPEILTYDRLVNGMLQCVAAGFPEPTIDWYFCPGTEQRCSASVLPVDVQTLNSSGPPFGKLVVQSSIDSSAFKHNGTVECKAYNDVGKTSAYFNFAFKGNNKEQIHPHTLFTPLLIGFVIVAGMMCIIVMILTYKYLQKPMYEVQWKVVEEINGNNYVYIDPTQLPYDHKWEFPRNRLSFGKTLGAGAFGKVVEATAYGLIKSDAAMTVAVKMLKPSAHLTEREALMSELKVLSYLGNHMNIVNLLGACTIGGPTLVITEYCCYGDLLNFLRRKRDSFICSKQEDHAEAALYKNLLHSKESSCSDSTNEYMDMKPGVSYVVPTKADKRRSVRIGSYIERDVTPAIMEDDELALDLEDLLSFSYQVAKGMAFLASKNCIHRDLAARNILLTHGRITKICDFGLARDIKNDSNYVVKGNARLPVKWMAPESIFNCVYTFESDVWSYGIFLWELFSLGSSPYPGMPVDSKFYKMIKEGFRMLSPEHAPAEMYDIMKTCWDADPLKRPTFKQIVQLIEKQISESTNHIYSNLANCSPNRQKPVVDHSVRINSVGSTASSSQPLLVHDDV

Rattus norvegicus [18] = test: Antiinflammatory effect in Freund's complete adjuvant-induced Lewis rat arthritis model assessed as prevention of bone erosion at 10 mg/kg, po twice daily administered on day 8 post adjuvant challenge measured on day 21 post adjuvant challenge relative to control; format: functional, organism-based; set-up: dose 10 mg/kg
Rattus norvegicus [19] = test: Antiinflammatory effect in Freund's complete adjuvant-induced Lewis rat arthritis model assessed as prevention of bone erosion at 3 mg/kg, po twice daily administered on day 8 post adjuvant challenge measured on day 21 post adjuvant challenge relative to control; format: functional, organism-based; set-up: dose 3 mg/kg
[20] = Metabolic stability in human liver microsomes after 10 mins; format: ADME, Microsome; conditions: read-out: Stability
[21] = Plasma concentration in Freund's complete adjuvant-induced Lewis rat arthritis model at 3 mg/kg, po twice daily administered on day 8 post adjuvant challenge measured 7 days after last dose; format: ADME, organism-based; set-up: dose 3 mg/kg, route oral
[22] = Metabolic stability in monkey liver microsomes after 10 mins; format: ADME, Macaca mulatta, Microsome; conditions: rhesus monkey, read-out: Stability
[23] = Volume of distribution at steady state in dog at 2 mg/kg, iv; format: ADME, organism-based, Canis lupus familiaris; set-up: dose 2 mg/kg, route intravenous; conditions: in vivo, read-out: Vdss
[24] = Volume of distribution at steady state in Sprague-Dawley rat at 2 mg/kg, iv; format: ADME, organism-based; set-up: dose 2 mg/kg, route intravenous; conditions: in vivo, read-out: Vdss
[25] = Cmax in mouse at 10 mg/kg, po; format: ADME, organism-based; set-up: dose 10 mg/kg, route oral; conditions: in vivo
[26] = Cmax in dog at 10 mg/kg, po; format: ADME, organism-based, Canis lupus familiaris; set-up: dose 10 mg/kg, route oral; conditions: in vivo
[27] = Oral bioavailability in dog at 10 mg/kg; format: ADME, organism-based, Canis lupus familiaris; conditions: in vivo
[28] = Clearance in dog at 2 mg/kg, iv; format: ADME, organism-based, Canis lupus familiaris; set-up: dose 2 mg/kg, route intravenous; conditions: in vivo
[29] = Metabolic stability in rat liver microsomes after 10 mins; format: ADME, Microsome; conditions: read-out: Stability
[30] = Cmax in Sprague-Dawley rat at 10 mg/kg, po; format: ADME, organism-based; set-up: dose 10 mg/kg, route oral; conditions: in vivo
[31] = molecular target: T1, Tyrosine-protein kinase receptor UFO (Homo sapiens, UniProt P30530); test: Inhibition of Axl by fluorescence polarization competition immunoassay
T1 sequence (P30530 whole entry): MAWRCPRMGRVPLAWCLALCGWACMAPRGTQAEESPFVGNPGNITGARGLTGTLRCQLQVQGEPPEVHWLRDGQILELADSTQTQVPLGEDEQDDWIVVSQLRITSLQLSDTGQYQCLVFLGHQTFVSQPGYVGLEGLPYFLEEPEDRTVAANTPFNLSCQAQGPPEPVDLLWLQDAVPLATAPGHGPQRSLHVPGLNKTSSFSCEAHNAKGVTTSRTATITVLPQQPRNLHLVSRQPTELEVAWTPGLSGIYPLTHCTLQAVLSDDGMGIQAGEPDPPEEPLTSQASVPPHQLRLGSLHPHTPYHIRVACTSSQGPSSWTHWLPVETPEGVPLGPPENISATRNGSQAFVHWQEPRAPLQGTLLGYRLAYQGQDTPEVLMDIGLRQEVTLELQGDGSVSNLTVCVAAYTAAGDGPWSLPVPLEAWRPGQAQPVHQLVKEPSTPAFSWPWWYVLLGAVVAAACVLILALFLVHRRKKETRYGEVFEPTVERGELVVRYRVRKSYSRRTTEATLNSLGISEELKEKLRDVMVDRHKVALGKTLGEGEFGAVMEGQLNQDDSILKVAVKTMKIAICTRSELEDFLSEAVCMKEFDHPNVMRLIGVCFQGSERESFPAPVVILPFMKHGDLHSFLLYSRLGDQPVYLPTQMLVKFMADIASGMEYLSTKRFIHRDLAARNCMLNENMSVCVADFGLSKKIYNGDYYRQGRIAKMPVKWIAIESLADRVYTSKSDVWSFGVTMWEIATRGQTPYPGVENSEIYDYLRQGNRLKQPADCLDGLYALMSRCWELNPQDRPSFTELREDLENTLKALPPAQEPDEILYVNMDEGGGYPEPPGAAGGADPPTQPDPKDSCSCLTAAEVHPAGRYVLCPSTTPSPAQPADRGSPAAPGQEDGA

[32] = molecular target: High affinity nerve growth factor receptor (Homo sapiens, UniProt P04629); test: Inhibition of TrkA by fluorescence polarization competition immunoassay
Sequence of High affinity nerve growth factor receptor (P04629 whole entry): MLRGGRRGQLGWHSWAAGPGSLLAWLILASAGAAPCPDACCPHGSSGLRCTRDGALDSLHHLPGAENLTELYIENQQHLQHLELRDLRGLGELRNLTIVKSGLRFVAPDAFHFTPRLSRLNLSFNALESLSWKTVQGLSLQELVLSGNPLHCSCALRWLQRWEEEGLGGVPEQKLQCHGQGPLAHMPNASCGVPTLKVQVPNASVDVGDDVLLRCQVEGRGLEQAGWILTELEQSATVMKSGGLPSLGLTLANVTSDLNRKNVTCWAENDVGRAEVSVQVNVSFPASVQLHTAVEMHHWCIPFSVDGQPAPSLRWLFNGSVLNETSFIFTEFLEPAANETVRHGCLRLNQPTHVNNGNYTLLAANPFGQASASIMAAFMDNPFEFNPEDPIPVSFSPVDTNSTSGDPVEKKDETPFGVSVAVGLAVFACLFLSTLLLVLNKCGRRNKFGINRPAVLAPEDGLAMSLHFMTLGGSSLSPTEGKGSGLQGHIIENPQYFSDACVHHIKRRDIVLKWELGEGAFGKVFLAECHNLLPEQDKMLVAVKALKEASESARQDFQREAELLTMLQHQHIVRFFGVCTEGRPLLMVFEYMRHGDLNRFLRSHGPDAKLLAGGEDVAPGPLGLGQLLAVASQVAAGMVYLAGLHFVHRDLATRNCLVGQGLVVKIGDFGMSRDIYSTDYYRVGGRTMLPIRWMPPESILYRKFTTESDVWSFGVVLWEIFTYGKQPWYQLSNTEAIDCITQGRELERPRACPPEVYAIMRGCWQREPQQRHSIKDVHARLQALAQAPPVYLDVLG

Rattus norvegicus [33] = test: Inhibition of ankle swelling in Freund's complete adjuvant-induced Lewis rat arthritis model at 1 mg/kg, po twice daily administered on day 8 post adjuvant challenge measured on day 21 post adjuvant challenge relative to control; format: functional
[34] = Volume of distribution at steady state in monkey at 2 mg/kg, iv; format: ADME, organism-based, Macaca mulatta; set-up: dose 2 mg/kg, route intravenous; conditions: rhesus monkey, in vivo, read-out: Vdss

With `CONC(=O)c1cn(-c2ccc3c(c2)CCC3)c2nc(Nc3ccc(C4CCN(C)CC4)cc3)ncc2c1=O` the half-life [1] was 6.9 h, the bioavailability [2] was 100% and the clearance [3] was 34 mL/min/kg. For the same compound, the concentration at 168 h [4] was 55 nM, the clearance [5] was 11 mL/min/kg and the concentration at 6 h [6] was 290 nM. The Activity (Mus musculus) was 90%, the clearance [7] was 48.7 mL/min/kg and the half-life [8] was 6.6 h. The Vd [9] was 3.6 L/kg, the remaining at 10 min [10] was 51% and the concentration at 168 h [11] was 14 nM. For the same compound, the half-life [12] was 9.3 h, the inhibition in vivo at […] (Rattus norvegicus [13]) was 7% and the IC50 [14] was 1400 nM. The IC50 [15] was 150 nM, the bioavailability [16] was 51% and the IC50 [17] was 6 nM. The Activity (Rattus norvegicus [18]) was “Active”, the Activity (Rattus norvegicus [19]) was “Active” and the remaining at 10 min [20] was 87%. For the same compound, the concentration at 168 h [21] was 189 nM, the remaining at 10 min [22] was 14% and the Vd [23] was 20.3 L/kg. The Vd [24] was 4.3 L/kg, the Cmax [25] was 1600 nM and the Cmax [26] was 120 nM. It also gave a bioavailability [27] of 33%, a clearance [28] of 30 mL/min/kg and a remaining at 10 min [29] of 96%. The Cmax [30] was 1600 nM, the IC50 [31] was over 1000 nM and the IC50 [32] was 500 nM. For the same compound, the inhibition in vivo at 1 mg/kg (Rattus norvegicus [33]) was 2% and the Vd [34] was 22.6 L/kg.
